Assay results: the supplement of paper PMC10307832

Key:
Experiment in all cases: relative viability (nuclei count vs DMSO), 5 days (fraction); higher = more cells survive
BX 795 + Trametinib = compound: O=C(NCCCNc1nc(Nc2cccc(NC(=O)N3CCCC3)c2)ncc1I)c1cccs1 [BX 795] + CC(=O)Nc1cccc(-n2c(=O)n(C3CC3)c(=O)c3c(Nc4ccc(I)cc4F)n(C)c(=O)c(C)c32)c1 [Trametinib] (partner 0.02 µM)
Method in brief: (§1)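 One day after seeding in 1536-well plates, lung cancer cell lines were dosed by pin tool. Dosing was either single-drug or a fixed anchor-drug dose plus five library-drug doses (not always all listed) in √10 steps. After 5 days, nuclei were stained in one fix-and-stain step and counted on 4× images, and relative viability is the nuclei count of treated wells over that of vehicle wells, given as the median of duplicate plates.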

BX 795 + Bortezomib = compound: O=C(NCCCNc1nc(Nc2cccc(NC(=O)N3CCCC3)c2)ncc1I)c1cccs1 [BX 795] + CC(C)C[C@H](NC(=O)[C@H](Cc1ccccc1)NC(=O)c1cnccn1)B(O)O [Bortezomib] (partner 0.002 µM)
Method in brief: as §1

BX 795 + Foretinib = compound: O=C(NCCCNc1nc(Nc2cccc(NC(=O)N3CCCC3)c2)ncc1I)c1cccs1 [BX 795] + COc1cc2c(Oc3ccc(NC(=O)C4(C(=O)Nc5ccc(F)cc5)CC4)cc3F)ccnc2cc1OCCCN1CCOCC1 [Foretinib] (partner 0.25 µM)
Method in brief: as §1

BX 795 + Tozasertib = compound: O=C(NCCCNc1nc(Nc2cccc(NC(=O)N3CCCC3)c2)ncc1I)c1cccs1 [BX 795] + Cc1cc(Nc2cc(N3CCN(C)CC3)nc(Sc3ccc(NC(=O)C4CC4)cc3)n2)n[nH]1 [Tozasertib] (partner 0.1 µM)
Method in brief: as §1

BX 795 + Pemetrexed = compound: O=C(NCCCNc1nc(Nc2cccc(NC(=O)N3CCCC3)c2)ncc1I)c1cccs1 [BX 795] + Nc1nc2[nH]cc(CCc3ccc(C(=O)N[C@@H](CCC(=O)O)C(=O)O)cc3)c2c(=O)[nH]1 [Pemetrexed] (partner 0.2 µM)
Method in brief: as §1

| Cell Line | relative viability (BX 795 + Trametinib; first compound 0.04 µM) | relative viability (BX 795 + Trametinib; first compound 0.1265 µM) | relative viability (BX 795 + Trametinib; first compound 0.4 µM) | relative viability (BX 795 + Trametinib; first compound 1.265 µM) | relative viability (BX 795 + Bortezomib; first compound 0.04 µM) | relative viability (BX 795 + Bortezomib; first compound 0.1265 µM) | relative viability (BX 795 + Bortezomib; first compound 0.4 µM) | relative viability (BX 795 + Bortezomib; first compound 1.265 µM) | relative viability (BX 795 + Foretinib; first compound 0.04 µM) | relative viability (BX 795 + Foretinib; first compound 0.1265 µM) | relative viability (BX 795 + Foretinib; first compound 0.4 µM) | relative viability (BX 795 + Foretinib; first compound 1.265 µM) | relative viability (BX 795 + Tozasertib; first compound 0.04 µM) | relative viability (BX 795 + Tozasertib; first compound 0.1265 µM) | relative viability (BX 795 + Tozasertib; first compound 0.4 µM) | relative viability (BX 795 + Tozasertib; first compound 1.265 µM) | relative viability (BX 795 + Pemetrexed; first compound 0.04 µM) | relative viability (BX 795 + Pemetrexed; first compound 0.1265 µM) | relative viability (BX 795 + Pemetrexed; first compound 0.4 µM) | relative viability (BX 795 + Pemetrexed; first compound 1.265 µM) |
| --- | --- | --- | --- | --- | --- | --- | --- | --- | --- | --- | --- | --- | --- | --- | --- | --- | --- | --- | --- | --- |
| NCI-H2405 | 0.557 | 0.556 | 0.44 | 0.534 | 0.965 | 1.03 | 0.91 | 0.941 | 1.08 | 1.06 | 1.02 | 0.935 | 0.799 | 0.715 | 0.746 | 0.581 | 1.06 | 1.02 | 0.996 | 1.05 |
| NCI-H322M | 0.5 | 0.487 | 0.6 | 0.562 | 1.39 | 1.26 | 1.44 | 1.39 | 0.949 | 1.17 | 0.967 | 1.33 | 0.456 | 0.488 | 0.372 | 0.47 | 0.591 | 0.606 | 0.603 | 0.672 |
| SK-LU-1 | 0.473 | 0.674 | 0.396 | 0.469 | 0.902 | 1.12 | – | 0.708 | 0.762 | 0.902 | – | 0.569 | 0.312 | 0.356 | – | 0.211 | 0.895 | 0.988 | 0.646 | 0.823 |
| PC-3 [JPC-3] | 0.723 | – | 0.631 | 0.729 | 0.768 | 0.822 | 0.86 | 0.861 | 1.03 | 1.03 | 1.03 | 0.949 | 0.931 | 0.851 | 0.881 | 0.872 | 1.04 | – | 1.16 | 1.02 |
| NCI-H727 | 0.377 | 0.38 | 0.36 | 0.4 | 1.05 | 0.962 | 0.926 | 0.739 | 0.957 | 0.846 | 0.916 | 1.09 | 0.683 | 0.706 | 0.512 | 0.546 | – | – | – | – |
| HARA | 0.75 | 0.625 | 1.16 | 0.533 | 1.12 | 1.03 | 1.1 | 1.06 | 0.914 | 0.935 | 0.849 | 0.31 | 0.124 | 0.0907 | 0.0944 | 0.0873 | 0.21 | 0.227 | 0.195 | 0.227 |
| RERF-LC-KJ | – | 0.962 | 0.878 | 0.788 | 1.09 | 1.23 | 1.14 | 1.02 | 0.907 | 0.851 | 0.889 | 0.888 | 0.599 | 0.501 | 0.445 | 0.217 | – | 0.444 | 0.443 | 0.467 |
| NCI-H1651 | 0.847 | 0.87 | 0.879 | 0.824 | 0.925 | 0.961 | 1.04 | 0.971 | 0.786 | 0.748 | 0.76 | 0.674 | 0.711 | 0.709 | 0.59 | 0.641 | 0.602 | 0.571 | 0.409 | 0.596 |
| EPLC-272H | 0.293 | 0.32 | 0.275 | 0.325 | 1.02 | – | 0.857 | 0.824 | 0.739 | 0.721 | 0.653 | 0.527 | 0.349 | 0.277 | 0.294 | 0.228 | 0.272 | 0.294 | 0.123 | 0.21 |
| NCI-H358 | 0.158 | 0.124 | 0.111 | 0.114 | – | – | – | – | 0.656 | 0.837 | 0.532 | 0.393 | 0.1 | 0.107 | 0.0928 | 0.098 | 0.167 | 0.168 | 0.134 | 0.123 |
| NCI-H522 | 0.84 | 0.781 | 0.803 | 0.616 | – | – | – | – | – | – | – | – | 0.57 | 0.603 | 0.544 | 0.569 | 1.13 | 1.16 | 1.08 | 1.02 |
| NCI-H2170 | 0.948 | 0.945 | 0.93 | 0.951 | – | – | – | – | 0.979 | 1.02 | 1.05 | 0.998 | 0.724 | 0.731 | 0.74 | 0.712 | 0.271 | 0.286 | 0.243 | 0.249 |
| NCI-H1395 | 1.05 | 1.06 | 0.52 | 0.925 | – | – | – | – | 0.979 | 1.02 | 0.943 | 0.899 | 0.698 | 0.721 | 0.601 | 0.72 | 0.675 | 0.872 | 0.407 | 0.626 |
| LK-2 | 0.757 | 0.837 | 0.583 | 0.629 | – | – | – | – | 0.937 | 1.51 | 1.31 | 1.1 | 0.164 | 0.185 | 0.16 | 0.175 | 0.277 | 0.237 | 0.269 | 0.24 |
| IA-LM | – | – | – | – | 0.655 | 0.841 | 0.974 | 0.54 | 1.15 | 1.19 | 1.28 | 0.628 | – | – | – | – | – | – | – | – |
| NCI-H1944 | 0.467 | 0.377 | 0.538 | 0.374 | – | – | – | – | 0.996 | 0.888 | 1.06 | 0.802 | 0.286 | 0.236 | 0.302 | 0.243 | 0.616 | 0.577 | 0.41 | 0.606 |
| NCI-H1793 | 0.404 | 0.403 | 0.526 | 0.344 | – | – | – | – | 0.887 | 0.663 | 0.834 | 0.266 | 0.372 | 0.326 | 0.375 | 0.213 | 0.872 | 0.628 | 0.856 | 0.711 |
| NCI-H1792 | 0.425 | – | 0.525 | 0.509 | 0.963 | 1.08 | 1.12 | 0.954 | – | – | – | – | – | – | – | – | 0.918 | – | 0.882 | 0.533 |
| ABC-1 | – | – | – | – | 0.392 | 0.299 | 0.332 | 0.291 | 1.03 | 1.05 | 0.929 | 0.601 | 0.193 | 0.151 | 0.145 | 0.148 | – | – | – | – |
